Experimental findings from paper PMC6017357, “In Vitro Inhibitory Effects of Synthetic Cannabinoid EAM-2201 on Cytochrome P450 and UDP-Glucuronosyltransferase Enzyme Activities in Human Liver Microsomes” (Molecules : A Journal of Synthetic Chemistry and Natural …, 2018) are described below.

Structures are written as SMILES.

The assay deals with T1, UGT1A4 (Homo sapiens, UniProt P22310).
T1 construct: ultrapooled human liver microsomes (0.2 mg/mL), 5 mM UDPGA; from tissue; host or cells: ultrapooled human liver microsomes
T1 sequence (P22310 29-534): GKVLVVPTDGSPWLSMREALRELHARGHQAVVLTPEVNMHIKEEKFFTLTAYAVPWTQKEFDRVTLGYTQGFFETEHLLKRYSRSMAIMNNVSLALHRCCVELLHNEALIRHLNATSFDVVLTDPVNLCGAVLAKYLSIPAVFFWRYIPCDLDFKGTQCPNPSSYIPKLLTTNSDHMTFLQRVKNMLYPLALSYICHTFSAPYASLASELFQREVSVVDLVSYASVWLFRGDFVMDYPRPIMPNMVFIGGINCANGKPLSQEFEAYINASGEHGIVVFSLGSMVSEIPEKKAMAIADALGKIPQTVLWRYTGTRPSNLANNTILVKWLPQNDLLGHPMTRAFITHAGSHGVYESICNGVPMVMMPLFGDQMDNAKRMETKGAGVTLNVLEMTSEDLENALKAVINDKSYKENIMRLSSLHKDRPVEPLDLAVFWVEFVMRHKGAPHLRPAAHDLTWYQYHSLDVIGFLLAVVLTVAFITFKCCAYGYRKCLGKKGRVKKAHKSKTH
In words: UGT1A4-catalyzed trifluoperazine N-glucuronidation in human liver microsomes. In kind it is in vitro ADME. The following applies: at 50 µM. The protocol: The inhibitory effects of EAM-2201 on UGT1A1, UGT1A3, UGT1A4, UGT1A6, UGT1A9 and UGT2B7 were evaluated using LC-MS/MS and the cocktail of UGT substrates as previously described. Each incubation mixture was prepared in a final volume of 100 µL as follows: ultrapooled human liver microsomes (0.2 mg/mL), 5 mM UDPGA, 10 mM magnesium chloride, alamethicin (25 µg/mL), 50 mM Tris buffer (pH 7.4), various concentrations of EAM-2201 in DMSO (final concentrations of 1–50 µM, 0.5% DMSO) and the UGT enzyme-specific substrates of two cocktail sets (set A: 0.5 µM SN-38, 2 µM chenodeoxycholic acid and 0.5 µM trifluoperazine; set B: 1 µM N-acetylserotonin, 0.2 µM mycophenolic acid and 1 µM naloxone, acetonitrile content, 0.5%). […] Supernatant from sets A and B (50 µL of each) was mixed and aliquots (5 µL) were analyzed by LC-MS/MS. […]
The metabolites formed from the six UGT cocktail substrates were simultaneously measured using LC-MS/MS [41]. […] Each metabolite was quantified via SRM in the negative ion mode: chenodeoxycholic acid 24-acyl-β-glucuronide, 567.2 > 391.0; mycophenolic acid glucuronide, 495.2 > 318.9; and propofol glucuronide (IS), 353.3 > 177.1; and in the positive ion mode: SN-38 glucuronide, 569.0 > 393.0; trifluoperazine glucuronide, 584.2 > 408.1; N-acetylserotonin-β-D-glucuronide, 395.2 > 219.0; naloxone 3-β-D-glucuronide, 504.0 > 310.0; and meloxicam (IS), 352.0 > 115.1. […]

`CCc1ccc(C(=O)c2cn(CCCCCF)c3ccccc23)c2ccccc12` [EAM-2201, (4-ethyl-1-naphthalenyl)[1-(5-fluoropentyl)-1H-indol-3-yl]-methanone]: the “inhibition of UGT1A4-catalyzed trifluoperazine N-glucuronidation” value is “negligibly inhibited”.
